# Target: T1, TRPV3 (Homo sapiens, UniProt Q8NET8)
# T1 sequence (Q8NET8 1-790): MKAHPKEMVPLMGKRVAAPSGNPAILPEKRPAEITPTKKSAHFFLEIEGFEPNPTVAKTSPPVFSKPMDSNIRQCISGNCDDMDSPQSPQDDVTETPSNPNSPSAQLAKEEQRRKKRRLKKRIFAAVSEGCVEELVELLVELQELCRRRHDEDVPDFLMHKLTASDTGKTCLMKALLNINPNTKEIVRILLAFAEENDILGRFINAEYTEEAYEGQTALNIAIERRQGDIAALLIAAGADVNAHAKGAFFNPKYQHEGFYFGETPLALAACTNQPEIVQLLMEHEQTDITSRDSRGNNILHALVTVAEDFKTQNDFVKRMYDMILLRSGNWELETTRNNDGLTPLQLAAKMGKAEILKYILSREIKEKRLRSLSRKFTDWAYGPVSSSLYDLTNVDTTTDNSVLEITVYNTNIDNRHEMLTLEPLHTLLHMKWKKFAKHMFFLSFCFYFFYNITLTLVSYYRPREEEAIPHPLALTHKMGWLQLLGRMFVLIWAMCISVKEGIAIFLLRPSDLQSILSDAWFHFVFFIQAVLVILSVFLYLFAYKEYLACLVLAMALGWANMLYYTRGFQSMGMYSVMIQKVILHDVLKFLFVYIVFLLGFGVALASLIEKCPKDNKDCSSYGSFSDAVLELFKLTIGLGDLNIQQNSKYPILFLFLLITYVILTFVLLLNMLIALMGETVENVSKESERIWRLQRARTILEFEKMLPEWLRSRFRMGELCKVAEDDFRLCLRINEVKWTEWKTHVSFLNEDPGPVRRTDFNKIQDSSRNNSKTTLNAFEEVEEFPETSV
# Assay: Whole-cell patch-clamp, 2-APB-evoked TRPV3 current in hTRPV3-overexpressing HEK 293T cells
# Format: cell-based
# Set-up: expressed in transfected cells
# Description: First, we used a conventional whole-cell patch-clamp to record the TRPV3 current in HEK 293T cells overexpressing hTRPV3. Then, different concentrations of alpha-mangostin were perfused into the cells to determine the effects of alpha-mangostin on the TRPV3 current. Alpha-mangostin inhibited 2-APB-evoked TRPV3 current, as shown in a representative cell in Figure 1A.
# Figure 1 Alpha-mangostin (α-MG) inhibited the TRPV3 current. […] (A) Alpha-mangostin inhibited 2-APB-evoked current in a representative TRPV3 overexpressing HEK 293T cell. The channel was activated using 100 µM 2-APB and subsequently perfused with solutions containing different concentrations of alpha-mangostin with 100 µM 2-APB. A solution containing 10 µM ruthenium red (RR, a TRP channel inhibitor) and 100 µM 2-APB was perfused at the end. […] Currents were normalized to the maximum response to 2-APB at −100 mV. (C) Alpha-mangostin inhibited carvacrol-evoked current in a representative TRPV3-overexpressing HEK 293T cell. TRPV3 was activated using 1000 µM carvacrol and subsequently perfused with solutions containing different concentrations of alpha-mangostin with 1000 µM carvacrol. A solution containing 10 µM RR and 1000 µM carvacrol was perfused at the end. (D) Summary of normalized currents evoked by carvacrol with or without alpha-mangostin at −100 mV. Currents were normalized to the maximum response carvacrol at −100 mV. (E) Alpha-mangostin inhibited 2-APB-evoked current in NHEK. The channel was activated using 100 µM 2-APB and subsequently perfused with solutions containing different concentrations of alpha-mangostin with 100 µM 2-APB. A solution containing 10 µM 74a (a TRPV3 inhibitor) and 100 µM 2-APB was perfused at the end. […] The right panel summarizes normalized currents evoked by 2-APB with or without alpha-mangostin at −100 mV. Currents were normalized to the maximum response to 2-APB at −100 mV. Data are presented as means ± SEM. ** p < 0.01, *** p < 0.001, **** p < 0.0001.
# HEK 293T cells were purchased from the American Type Culture Collection (Cat. No. CRL-3216, ATCC, Manassas, VA, USA). TRPV3-overexpressing HEK 293T cells were supplied by Prof. Wan Lee (Dongguk University College of Medicine, Gyeongju, South Korea). HEK 293T cells expressing TRPV3 mutants (G573S, G573C), TRPV4, TRPA1 were made by transient transfection. These cells were cultured in Dulbecco’s modified Eagle’s medium (DMEM, Welgene, Daegu, Korea) containing 10% fetal bovine serum (FBS; Welgene) and 1% penicillin/streptomycin (P/S; Life Technologies, Carlsbad, CA, USA). […]
# […] Sampling at 10 kHz and low-pass filtering at 5 kHz (w-c) were applied for all recorded currents. Recorded data were analyzed using Clampfit ver. […]
structure (smiles),measurement,setting,value
COc1c(O)cc2oc3cc(O)c(CC=C(C)C)c(O)c3c(=O)c2c1CC=C(C)C [Alpha-mangostin],Inhibition of 2-APB-evoked TRPV3 currents,"10 µM, 100 µM 2-APB, −100 mV, similar level to 10 µM ruthenium red",almost completely inhibited
same,inhibition at 0.3 µM,"HEK-293T, 0.3 µM, −100 mV, read-out: Inhibition percentage of TRPV3 current",76.6%
same,IC50,"hTRPV3-overexpressing HEK 293T, 100 µM 2-APB, at −100 mV, read-out: IC50, inhibition of 2-APB-induced TRPV3 current",77 ± 13 nM
same,Reversibility of inhibitory effect on TRPV3 current,"wash out, 100 µM 2-APB, −60 mV holding potential",partly reversible

# From PMC10455244, “Alpha-Mangostin: A Potent Inhibitor of TRPV3 and Pro-Inflammatory Cytokine Secretion in Keratinocytes” (International Journal of Molecular Sciences, 2023)
